Measured values published in US11440923B2, “Substituted macrocyclic indole derivatives” (Bayer Aktiengesellschaft, priority 2017, dated 2022).
pEC50, pIC50: −log10 of the molar value. Counter-ions that a name gives are not always drawn. Like-named read-outs stand apart in the source and are kept apart here.

How the values were obtained:
[1] = test system: SUDHL5 cells; experiment: Antiproliferation assay SUDHL5 (Assay 7); type: cell-based
Method in brief: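 Luminescent viability signal (CellTiter-Glo) after 72 h of treatment served as read-out. IC50 values were derived with day 0 luminescence as CI and DMSO wells as C0.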

[2] = test system: SUDHL5 cells; experiment: Induction of caspase-3/7 activity in SUDHL5 cells (Assay 4); type: cell-based
Method in brief: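 Caspase-3/7 activity measured in DLBCL lines after 3 h compound exposure at 37 °C, following overnight plating; Caspase-Glo 3/7 luminescence read after 1 h at 37 °C. Medium-only background subtracted, values normalized to mean of DMSO-treated cells.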

[3] = molecular target: BCL-XL (Homo sapiens (Human), UniProt Q07817); experiment: Protein-protein interaction assay BCL-XL/Bad BH3 peptide (BCL-XL assay, TR-FRET); type: binding; settings: read-out: BCL-XL Assay IC50 (median)
Chain of BCL-XL (Q07817 1-212): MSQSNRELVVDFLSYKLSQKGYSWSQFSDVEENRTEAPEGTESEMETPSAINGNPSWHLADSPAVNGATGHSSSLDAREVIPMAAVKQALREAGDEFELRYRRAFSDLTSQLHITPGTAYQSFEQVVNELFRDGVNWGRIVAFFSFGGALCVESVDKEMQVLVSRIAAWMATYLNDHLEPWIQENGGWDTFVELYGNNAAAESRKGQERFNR
Method in brief: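 Human BCL-XL (aa 1-212, C-terminal His6, E. coli) at 1 nM end concentration, preincubated 10 min at 22 °C with compound (11 concentrations, 0.1 nM–20 μM, duplicates), then biotinylated Bad BH3 peptide (1 nM) added with anti-His-Eu cryptate/streptavidin-XL665. Incubation 1 h at 22 °C then overnight at 4 °C; TR-FRET 665/620 ratio, IC50 from 4-parameter fit.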

[4] = read-out: Antiproli SUDHL5 IC50 (median); 72 h, CellTiter-Glo
[5] = read-out: Caspase SUDHL5 EC50 (median); caspase-3/7 induction, 3 h
[6] = 72 h, CellTiter-Glo; read-out: Antiproli SUDHL5 IC50 (median)
[7] = caspase-3/7 induction, 3 h; read-out: Caspase SUDHL5 EC50 (median)
[8] = Homo sapiens, SU-DHL-5, 72 h, 72 h, CellTiter-Glo; read-out: Antiproli SUDHL5 IC50 (median)
[9] = Homo sapiens, SU-DHL-5, 3 h, caspase-3/7 induction, 3 h; read-out: Caspase SUDHL5 EC50 (median)

SMILES | pIC50 [1, 4] | pEC50 [2, 5] | pIC50 [3] | pIC50 [1, 6] | pEC50 [2, 7] | pIC50 [1, 8] | pEC50 [2, 9]
Cc1c2c(nn1C)C(C)OCCCCn1c(C(=O)O)c(CCCOc3cccc4ccccc34)c3cccc-2c31 (single isomer, unassigned; stereoisomer 1) [Example 2, 2,3,15-trimethyl-7-[3-(naphthalen-1-yloxy)propyl]-2,10,11,12,13,15-hexahydropyrazolo[4′,3′:9,10][1,6]oxazacycloundecino[8,7,6-hi]indole-8-carboxylic Acid Trifluoroacetic Acid Salt (Stereoisomer 1)] | 5.46 | 5.92 | < 4.70 |  |  |  | 
CCc1c2c(nn1C)C(CCC1CCOCC1)OCCCCn1c(C(=O)O)c(CCCOc3cccc4cc(F)ccc34)c3ccc(Cl)c-2c31 (single isomer, unassigned; enantiomer 2) [Example 62, (−)-4-chloro-3-ethyl-7-{3-[(6-fluoronaphthalen-1-yl)oxy]propyl}-2-methyl-15-[2-(oxan-4-yl)ethyl]-2,10,11,12,13,15-hexahydropyrazolo[4′,3′:9,10][1,6]oxazacycloundecino[8,7,6-hi]indole-8-carboxylic Acid (Enantiomer 2)] |  |  | < 4.70 | 5.28 | 5.38 |  | 
Cc1c2c(nn1C)C(C)OCCCCn1c(C(=O)O)c(CCCOc3cccc4ccccc34)c3cccc-2c31 (racemic) [Example 1, (rac)-2,3,15-trimethyl-7-[3-(naphthalen-1-yloxy)propyl]-2,10,11,12,13,15-hexahydropyrazolo[4′,3′:9,10][1,6]oxazacycloundecino[8,7,6-hi]indole-8-carboxylic Acid (Mixture of Stereoisomers)] |  |  | < 4.70 |  |  | 5.82 | 5.64
Cc1c2c(nn1C)C(CCN1CCOCC1)OCCCCn1c(C(=O)O)c(CCCOc3cccc4ccccc34)c3ccc(F)c-2c31 (racemic) [Example 7, (rac)-4-fluoro-2,3-dimethyl-15-[2-(morpholin-4-yl)ethyl]-7-[3-(naphthalen-1-yloxy)propyl]-2,10,11,12,13,15-hexahydropyrazolo[4′,3′:9,10][1,6]oxazacycloundecino[8,7,6-hi]indole-8-carboxylic Acid] |  |  | < 4.70 |  |  | 6.70 | 6.70
Cc1c2c(nn1C)C(CCN1CCOCC1)OCCCCn1c(C(=O)O)c(CCCOc3cccc4ccccc34)c3ccc(Cl)c-2c31 (racemic) [Example 13, (rac)-4-chloro-2,3-dimethyl-15-[2-(morpholin-4-yl)ethyl]-7-{3-[(naphthalen-1-yl)oxy]propyl}-2,10,11,12,13,15-hexahydropyrazolo[4′,3′:9,10][1,6]oxazacycloundecino[8,7,6-hi]indole-8-carboxylic Acid] |  |  | < 4.70 |  |  | 6.96 | 7.11
Cc1c2c(nn1C)C(CCN1CCOCC1)OCCCCn1c(C(=O)O)c(CCCOc3cccc4ccccc34)c3ccc(F)c-2c31 (single isomer, unassigned; enantiomer 2) [Example 9, 4-fluoro-2,3-dimethyl-15-[2-(morpholin-4-yl)ethyl]-7-{3-[(naphthalen-1-yl)oxy]propyl}-2,10,11,12,13,15-hexahydropyrazolo[4′,3′:9,10][1,6]oxazacycloundecino[8,7,6-hi]indole-8-carboxylic Acid—N-ethylethanamine Salt (Enantiomer 2)] | 5.37 | 5.19 | < 4.70 |  |  |  | 
CCc1c2c(nn1C)C(CCO)OCCCCn1c(C(=O)O)c(CCCOc3cccc4cc(F)ccc34)c3ccc(Cl)c-2c31 (single isomer, unassigned; enantiomer 1) [Example 45, (+)-4-chloro-3-ethyl-7-{3-[(6-fluoronaphthalen-1-yl)oxy]propyl}-15-(2-hydroxyethyl)-2-methyl-2,10,11,12,13,15-hexahydropyrazolo[4′,3′:9,10][1,6]oxazacycloundecino[8,7,6-hi]indole-8-carboxylic Acid (Enantiomer 1)] |  |  | < 4.70 |  | 7.72 | 7.02 | 
CCc1c2c(nn1C)C(CCN1CCOCC1)OCCCCn1c(C(=O)O)c(CCCOc3cccc4cc(F)ccc34)c3ccc(Cl)c-2c31 (racemic) [Example 22, (rac)-4-chloro-3-ethyl-7-{3-[(6-fluoronaphthalen-1-yl)oxy]propyl}-2-methyl-15-[2-(morpholin-4-yl)ethyl]-2,10,11,12,13,15-hexahydropyrazolo[4′,3′:9,10][1,6]oxazacycloundecino[8,7,6-hi]indole-8-carboxylic Acid] |  |  | < 4.70 |  |  | 7.89 | 8.00
CCc1c2c(nn1C)C(CCOC)OCCCCn1c(C(=O)O)c(CCCOc3cccc4cc(F)ccc34)c3ccc(Cl)c-2c31 (racemic) [Example 41, (rac)-4-chloro-3-ethyl-7-{3-[(6-fluoronaphthalen-1-yl)oxy]propyl}-(15-rac)-(2-methoxyethyl)-2-methyl-2,10,11,12,13,15-hexahydropyrazolo[4′,3′:9,10][1,6]oxazacycloundecino[8,7,6-hi]indole-8-carboxylic Acid] |  |  | 4.82 |  |  | 6.80 | 7.01
CCc1c2c(nn1C)C(CCN1CCOCC1)OCCCCn1c(C(=O)O)c(CCCOc3cccc4ccccc34)c3ccc(F)c-2c31 (racemic) [Example 10, (rac)-3-ethyl-4-fluoro-2-methyl-15-[2-(morpholin-4-yl)ethyl]-7-[3-(naphthalen-1-yloxy)propyl]-2,10,11,12,13,15-hexahydropyrazolo[4′,3′:9,10][1,6]oxazacycloundecino[8,7,6-hi]indole-8-carboxylic Acid] |  |  | < 4.70 |  |  | 6.80 | 6.96
Cc1c2c(nn1C)C(CCN1CCOCC1)OCCCCn1c(C(=O)O)c(CCCOc3cccc4ccccc34)c3cccc-2c31 (single isomer, unassigned; stereoisomer 2) [Example 6, 2,3-dimethyl-15-[2-(morpholin-4-yl)ethyl]-7-[3-(naphthalen-1-yloxy)propyl]-2,10,11,12,13,15-hexahydropyrazolo[4′,3′:9,10][1,6]oxazacycloundecino[8,7,6-hi]indole-8-carboxylic Acid (Stereoisomer 2)] |  |  | < 4.70 | 5.09 | 4.66 |  | 
Cc1c2c(nn1C)C(CCN1CCOCC1)OCCCCn1c(C(=O)O)c(CCCOc3cccc4cc(F)ccc34)c3ccc(F)c-2c31 (racemic) [Example 19, (rac)-4-fluoro-7-{3-[(6-fluoronaphthalen-1-yl)oxy]propyl}-2,3-dimethyl-15-[2-(morpholin-4-yl)ethyl]-2,10,11,12,13,15-hexahydropyrazolo[4′,3′:9,10][1,6]oxazacycloundecino[8,7,6-hi]indole-8-carboxylic Acid] |  |  | < 4.70 |  |  | 7.11 | 7.14
Cc1c2c(nn1C)C(CCN1CCOCC1)OCCCCn1c(C(=O)O)c(CCCOc3cccc4cc(F)ccc34)c3ccc(F)c-2c31 (single isomer, unassigned; enantiomer 2) [Example 21, 4-fluoro-7-{3-[(6-fluoronaphthalen-1-yl)oxy]propyl}-2,3-dimethyl-15-[2-(morpholin-4-yl)ethyl]-2,10,11,12,13,15-hexahydropyrazolo[4′,3′:9,10][1,6]oxazacycloundecino[8,7,6-hi]indole-8-carboxylic Acid (Enantiomer 2)] |  |  | < 4.70 |  |  | 5.47 | 4.96
CCc1c2c(nn1C)C(CCN1CCC(F)(F)C1)OCCCCn1c(C(=O)O)c(CCCOc3cccc4cc(F)ccc34)c3ccc(Cl)c-2c31 (single isomer, unassigned; enantiomer 2) [Example 57, 4-chloro-15-[2-(3,3-difluoropyrrolidin-1-yl)ethyl]-3-ethyl-7-{3-[(6-fluoronaphthalen-1-yl)oxy]propyl}-2-methyl-2,10,11,12,13,15-hexahydropyrazolo[4′,3′:9,10][1,6]oxazacycloundecino[8,7,6-hi]indole-8-carboxylic Acid N-ethylethanamine Salt (Enantiomer 2)] | 5.06 | 5.13 | < 4.70 |  |  |  | 
